{"source": "ChEMBL document CHEMBL3046890", "about": "“Synthesis and Herbicidal Activity of Sulfonylureas; SL-950 and Its Related Compounds” (1995)", "type_in_all_cases": "functional", "key": {"[1]": {"tested_on": "Chenopodium album", "assay": "Post-emergence herbicidal activity against two-leaf stage Chenopodium album assessed as efficacy of weed growth control at 60 g ai/ha under greenhouse conditions"}, "[2]": {"tested_on": "Commelina communis", "assay": "Post emergence herbicidal activity against two-leaf stage Commelina communis (Asiatic dayflower) assessed as efficacy of weed growth control at 40 g ai/ha under greenhouse conditions"}, "[3]": {"tested_on": "Echinochloa crus-galli", "assay": "Post emergence herbicidal activity against three-leaf stage Echinochloa crus-galli (barnyard grass) assessed as efficacy of weed growth control at 750 g ai/ha under greenhouse conditions"}, "[4]": {"tested_on": "Setaria viridis", "assay": "Post-emergence herbicidal activity against two-leaf stage Setaria viridis (green foxtail) assessed as efficacy of weed growth control at 60 g ai/ha under greenhouse conditions"}, "[5]": {"tested_on": "Solanum nigrum", "assay": "Post emergence herbicidal activity against four-leaf stage Solanum nigrum (black nightshade) assessed as efficacy of weed growth control at 80 g ai/ha under greenhouse conditions"}, "[6]": {"tested_on": "Cynodon dactylon", "assay": "Post-emergence herbicidal activity against 15 cm leaf stage Cynodon dactylon assessed as efficacy of weed growth control at 750 g ai/ha under greenhouse conditions"}, "[7]": {"tested_on": "Eleusine indica", "assay": "Post emergence herbicidal activity against three-leaf stage Eleusine indica assessed as efficacy of weed growth control at 750 g ai/ha under greenhouse conditions"}, "[8]": {"tested_on": "Amaranthus viridis", "assay": "Post-emergence herbicidal activity against three-leaf stage Amaranthus viridis assessed as efficacy of weed growth control at 750 g ai/ha under greenhouse conditions"}, "[9]": {"tested_on": "Eleusine indica", "assay": "Post emergence herbicidal activity against three-leaf stage Eleusine indica assessed as efficacy of weed growth control at 60 g ai/ha under greenhouse conditions"}, "[10]": {"tested_on": "Xanthium strumarium", "assay": "Post emergence herbicidal activity against Xanthium strumarium (cocklebur) assessed as inhibition of weed growth at 125 g ai/ha measured 22 to 37 days after compound application under greenhouse conditions", "conditions": "read-out: GI"}, "[11]": {"tested_on": "Abutilon theophrasti", "assay": "Post-emergence herbicidal activity against one-leaf stage Abutilon theophrasti (velvetleaf) assessed as efficacy of weed growth control at 750 g ai/ha under greenhouse conditions"}, "[12]": {"tested_on": "Galinsoga quadriradiata", "assay": "Post-emergence herbicidal activity against four-leafstage of Galinsoga quadriradiata assessed as efficacy of weed growth control at 60 g ai/ha under greenhouse conditions"}, "[13]": {"tested_on": "Commelina communis", "assay": "Post emergence herbicidal activity against two-leaf stage Commelina communis (Asiatic dayflower) assessed as efficacy of weed growth control at 60 g ai/ha under greenhouse conditions"}, "[14]": {"tested_on": "Persicaria lapathifolia", "assay": "Post-emergence herbicidal activity against three-leaf stage Persicaria lapathifolia assessed as efficacy of weed growth control at 80 g ai/ha under greenhouse conditions"}, "[15]": {"tested_on": "Stellaria media", "assay": "Post-emergence herbicidal activity against eight-leaf stage Stellaria media assessed as efficacy of weed growth control at 40 g ai/ha under greenhouse conditions"}, "[16]": {"tested_on": "Sorghum halepense", "assay": "Post emergence herbicidal activity against four to five-leaf stage Sorghum halepense (Johnson grass) assessed as efficacy of weed growth control at 750 g ai/ha under greenhouse conditions"}, "[17]": {"tested_on": "Galinsoga quadriradiata", "assay": "Post-emergence herbicidal activity against four-leafstage of Galinsoga quadriradiata assessed as efficacy of weed growth control at 80 g ai/ha under greenhouse conditions"}, "[18]": {"tested_on": "Cyperus microiria", "assay": "Post-emergence herbicidal activity against three-leaf stage Cyperus microiria assessed as efficacy of weed growth control at 40 g ai/ha under greenhouse conditions"}, "[19]": {"tested_on": "Portulaca oleracea", "assay": "Post-emergence herbicidal activity against three-leaf stage Portulaca oleracea assessed as efficacy of weed growth control at 750 g ai/ha under greenhouse conditions"}, "[20]": {"tested_on": "Cynodon dactylon", "assay": "Post-emergence herbicidal activity against 15 cm leaf stage Cynodon dactylon assessed as efficacy of weed growth control at 80 g ai/ha under greenhouse conditions"}, "[21]": {"tested_on": "Abutilon theophrasti", "assay": "Post-emergence herbicidal activity against one-leaf stage Abutilon theophrasti (velvetleaf) assessed as efficacy of weed growth control at 40 g ai/ha under greenhouse conditions"}, "[22]": {"tested_on": "Digitaria sanguinalis", "assay": "Post-emergence herbicidal activity against two-leaf stage Digitaria sanguinalis (hairy crabgrass) assessed as efficacy of weed growth control at 60 g ai/ha under greenhouse conditions"}, "[23]": {"tested_on": "Portulaca oleracea", "assay": "Post-emergence herbicidal activity against three-leaf stage Portulaca oleracea assessed as efficacy of weed growth control at 80 g ai/ha under greenhouse conditions"}, "[24]": {"tested_on": "Sorghum halepense", "assay": "Post emergence herbicidal activity against four to five-leaf stage Sorghum halepense (Johnson grass) assessed as efficacy of weed growth control at 40 g ai/ha under greenhouse conditions"}, "[25]": {"tested_on": "Echinochloa crus-galli", "assay": "Post emergence herbicidal activity against three-leaf stage Echinochloa crus-galli (barnyard grass) assessed as efficacy of weed growth control at 60 g ai/ha under greenhouse conditions"}, "[26]": {"tested_on": "Abutilon theophrasti", "assay": "Post-emergence herbicidal activity against one-leaf stage Abutilon theophrasti (velvetleaf) assessed as efficacy of weed growth control at 80 g ai/ha under greenhouse conditions"}, "[27]": {"tested_on": "Avena fatua", "assay": "Post-emergence herbicidal activity against three-leaf stage Avena fatua assessed as efficacy of weed growth control at 80 g ai/ha under greenhouse conditions"}, "[28]": {"tested_on": "Sorghum halepense", "assay": "Post emergence herbicidal activity against four to five-leaf stage Sorghum halepense (Johnson grass) assessed as efficacy of weed growth control at 80 g ai/ha under greenhouse conditions"}, "[29]": {"tested_on": "Capsella bursa-pastoris", "assay": "Post-emergence herbicidal activity against four-leaf stage Capsella bursa-pastoris assessed as efficacy of weed growth control at 80 g ai/ha under greenhouse conditions"}, "[30]": {"tested_on": "Cyperus rotundus", "assay": "Post-emergence herbicidal activity against four to five-leaf stage Cyperus rotundus assessed as efficacy of weed growth control at 60 g ai/ha under greenhouse conditions"}, "[31]": {"tested_on": "Senna tora", "assay": "Post-emergence herbicidal activity against one-leaf stage Senna tora assessed as efficacy of weed growth control at 750 g ai/ha under greenhouse conditions"}, "[32]": {"tested_on": "Sida spinosa", "assay": "Post-emergence herbicidal activity against two-leaf stage Sida spinosa assessed as efficacy of weed growth control at 750 g ai/ha under greenhouse conditions"}, "[33]": {"tested_on": "Commelina communis", "assay": "Post emergence herbicidal activity against two-leaf stage Commelina communis (Asiatic dayflower) assessed as efficacy of weed growth control at 750 g ai/ha under greenhouse conditions"}, "[34]": {"tested_on": "Sorghum halepense", "assay": "Post emergence herbicidal activity against four to five-leaf stage Sorghum halepense (Johnson grass) assessed as efficacy of weed growth control at 60 g ai/ha under greenhouse conditions"}, "[35]": {"tested_on": "Persicaria longiseta", "assay": "Post-emergence herbicidal activity against Persicaria longiseta assessed as inhibition of weed growth at 125 g ai/ha measured 22 to 37 days after compound application under greenhouse conditions", "conditions": "read-out: GI"}, "[36]": {"tested_on": "Solanum nigrum", "assay": "Post emergence herbicidal activity against four-leaf stage Solanum nigrum (black nightshade) assessed as efficacy of weed growth control at 750 g ai/ha under greenhouse conditions"}, "[37]": {"tested_on": "Setaria viridis", "assay": "Post-emergence herbicidal activity against two-leaf stage Setaria viridis (green foxtail) assessed as efficacy of weed growth control at 40 g ai/ha under greenhouse conditions"}, "[38]": {"tested_on": "Amaranthus viridis", "assay": "Post-emergence herbicidal activity against three-leaf stage Amaranthus viridis assessed as efficacy of weed growth control at 80 g ai/ha under greenhouse conditions"}, "[39]": {"tested_on": "Senna tora", "assay": "Post-emergence herbicidal activity against one-leaf stage Senna tora assessed as efficacy of weed growth control at 80 g ai/ha under greenhouse conditions"}, "[40]": {"tested_on": "Cyperus microiria", "assay": "Post-emergence herbicidal activity against three-leaf stage Cyperus microiria assessed as efficacy of weed growth control at 750 g ai/ha under greenhouse conditions"}, "[41]": {"tested_on": "Cyperus microiria", "assay": "Post-emergence herbicidal activity against three-leaf stage Cyperus microiria assessed as efficacy of weed growth control at 80 g ai/ha under greenhouse conditions"}}, "data": [{"smiles": "COc1cc(OC)nc(NC(=O)NS(=O)(=O)c2ncccc2C(=O)N(C)C)n1", "note": "[NICOSULFURON]", "values": [{"measurement": "Efficacy", "setting": "[1]", "result": 70, "unit": "%"}, {"measurement": "Efficacy", "setting": "[2]", "result": 70, "unit": "%"}, {"measurement": "Efficacy", "setting": "[3]", "result": 50, "unit": "%"}, {"measurement": "Efficacy", "setting": "[4]", "result": 95, "unit": "%"}, {"measurement": "Efficacy", "setting": "[5]", "result": 70, "unit": "%"}, {"measurement": "Efficacy", "setting": "[6]", "result": "<50", "unit": "%"}, {"measurement": "Efficacy", "setting": "[7]", "result": "<50", "unit": "%"}, {"measurement": "Efficacy", "setting": "[8]", "result": 50, "unit": "%"}, {"measurement": "Efficacy", "setting": "[9]", "result": 95, "unit": "%"}, {"measurement": "inhibition of growth at 125 g/ha", "setting": "[10]", "result": 100, "unit": "%"}, {"measurement": "Efficacy", "setting": "[11]", "result": 95, "unit": "%"}, {"measurement": "Efficacy", "setting": "[12]", "result": 95, "unit": "%"}, {"measurement": "Efficacy", "setting": "[13]", "result": 95, "unit": "%"}, {"measurement": "Efficacy", "setting": "[14]", "result": 95, "unit": "%"}, {"measurement": "Efficacy", "setting": "[15]", "result": 70, "unit": "%"}, {"measurement": "Efficacy", "setting": "[16]", "result": "<50", "unit": "%"}, {"measurement": "Efficacy", "setting": "[17]", "result": 95, "unit": "%"}, {"measurement": "Efficacy", "setting": "[18]", "result": 95, "unit": "%"}, {"measurement": "Efficacy", "setting": "[19]", "result": 95, "unit": "%"}, {"measurement": "Efficacy", "setting": "[20]", "result": "<50", "unit": "%"}, {"measurement": "Efficacy", "setting": "[21]", "result": 50, "unit": "%"}, {"measurement": "Efficacy", "setting": "[22]", "result": 95, "unit": "%"}, {"measurement": "Efficacy", "setting": "[23]", "result": 95, "unit": "%"}, {"measurement": "Efficacy", "setting": "[24]", "result": 70, "unit": "%"}, {"measurement": "Efficacy", "setting": "[25]", "result": 95, "unit": "%"}, {"measurement": "Efficacy", "setting": "[26]", "result": 70, "unit": "%"}, {"measurement": "Efficacy", "setting": "[27]", "result": 95, "unit": "%"}, {"measurement": "Efficacy", "setting": "[28]", "result": 95, "unit": "%"}, {"measurement": "Efficacy", "setting": "[29]", "result": 95, "unit": "%"}, {"measurement": "Efficacy", "setting": "[30]", "result": 70, "unit": "%"}, {"measurement": "Efficacy", "setting": "[31]", "result": "<50", "unit": "%"}, {"measurement": "Efficacy", "setting": "[32]", "result": 95, "unit": "%"}, {"measurement": "Efficacy", "setting": "[33]", "result": 95, "unit": "%"}, {"measurement": "Efficacy", "setting": "[34]", "result": 95, "unit": "%"}, {"measurement": "inhibition of growth at 125 g/ha", "setting": "[35]", "result": 100, "unit": "%"}, {"measurement": "Efficacy", "setting": "[36]", "result": 95, "unit": "%"}, {"measurement": "Efficacy", "setting": "[37]", "result": 95, "unit": "%"}, {"measurement": "Efficacy", "setting": "[38]", "result": 95, "unit": "%"}, {"measurement": "Efficacy", "setting": "[39]", "result": 70, "unit": "%"}, {"measurement": "Efficacy", "setting": "[40]", "result": 95, "unit": "%"}, {"measurement": "Efficacy", "setting": "[41]", "result": 95, "unit": "%"}]}]}
